These results are taken from patent US10125098B2, “Therapeutic compounds and methods of use thereof” (GENENTECH, INC., priority 2014, dated 2018).

Read-outs that look alike come from different tables or passages of the source.

One data set has as its target T1, NaV1.5 (Homo sapiens, UniProt Q14524).
T1 construct: permanently transfected with an expression vector containing the full-length cDNA coding for the desired human sodium channel α-subunit; expressed in transfected cells; host or cells: HEK-293
Nature of the data set: Patch voltage clamp electrophysiology assay (EP), NaV1.5. In kind it is cell-based. A digest of the protocol:
(§1)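 Percent block is the drop in sodium current after compound wash-on, measured by a test pulse following 20 ms at −150 mV from a −60 mV inactivating holding potential.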

The next data set deals with T2, human NaV1.7 (Homo sapiens, UniProt Q15858).
T2 construct: permanently transfected with an expression vector containing the full-length cDNA coding for the desired human sodium channel α-subunit; expressed in transfected cells; host or cells: HEK-293
In words: Patch voltage clamp electrophysiology assay (EP), NaV1.7. Format: cell-based. Conditions: HEK-293 cells stably expressing NaV1.7 with β1 subunit; whole-cell patch clamp, membrane potential −60 mV (inactivated state). The method, boiled down:
as §1

The next data set has as its target T3, hNav1.7 (Homo sapiens, UniProt Q15858).
T3 construct: expressed in transfected cells
In words: Tritiated compound binding (LBA) to membranes from cells expressing hNav1.7 and the β1 subunit, competitive binding. The note with it: competitive binding vs 100 pM [3H]compound, 18 h, room temperature, membranes with hNav1.7 and β1 subunit. A digest of the protocol:
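Competitive displacement of 100 pM [3H]compound (tritiated methyl analogue of formula (I)) from hNav1.7/β1 membranes, 18 h at room temperature in NaCl/Tris pH 7.4 buffer containing 0.01% BSA. 1 μM unlabeled compound set non-specific binding. Bound label quantified by scintillation after filtration; 4-parameter fit gave IC50.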

[1] abbreviates: human, HEK-293 cells stably expressing human NaV1.5 with β1 subunit, pH 7.4, HEK-293 cells stably expressing NaV1.5 with β1 subunit, whole-cell patch clamp, membrane potential −60 mV (inactivated state).
Where [2] appears, read: HEK-293 cells stably expressing NaV1.5 with β1 subunit, whole-cell patch clamp, membrane potential −60 mV (inactivated state), read-out: Nav1.5.

T1 sequence (Q14524 whole entry): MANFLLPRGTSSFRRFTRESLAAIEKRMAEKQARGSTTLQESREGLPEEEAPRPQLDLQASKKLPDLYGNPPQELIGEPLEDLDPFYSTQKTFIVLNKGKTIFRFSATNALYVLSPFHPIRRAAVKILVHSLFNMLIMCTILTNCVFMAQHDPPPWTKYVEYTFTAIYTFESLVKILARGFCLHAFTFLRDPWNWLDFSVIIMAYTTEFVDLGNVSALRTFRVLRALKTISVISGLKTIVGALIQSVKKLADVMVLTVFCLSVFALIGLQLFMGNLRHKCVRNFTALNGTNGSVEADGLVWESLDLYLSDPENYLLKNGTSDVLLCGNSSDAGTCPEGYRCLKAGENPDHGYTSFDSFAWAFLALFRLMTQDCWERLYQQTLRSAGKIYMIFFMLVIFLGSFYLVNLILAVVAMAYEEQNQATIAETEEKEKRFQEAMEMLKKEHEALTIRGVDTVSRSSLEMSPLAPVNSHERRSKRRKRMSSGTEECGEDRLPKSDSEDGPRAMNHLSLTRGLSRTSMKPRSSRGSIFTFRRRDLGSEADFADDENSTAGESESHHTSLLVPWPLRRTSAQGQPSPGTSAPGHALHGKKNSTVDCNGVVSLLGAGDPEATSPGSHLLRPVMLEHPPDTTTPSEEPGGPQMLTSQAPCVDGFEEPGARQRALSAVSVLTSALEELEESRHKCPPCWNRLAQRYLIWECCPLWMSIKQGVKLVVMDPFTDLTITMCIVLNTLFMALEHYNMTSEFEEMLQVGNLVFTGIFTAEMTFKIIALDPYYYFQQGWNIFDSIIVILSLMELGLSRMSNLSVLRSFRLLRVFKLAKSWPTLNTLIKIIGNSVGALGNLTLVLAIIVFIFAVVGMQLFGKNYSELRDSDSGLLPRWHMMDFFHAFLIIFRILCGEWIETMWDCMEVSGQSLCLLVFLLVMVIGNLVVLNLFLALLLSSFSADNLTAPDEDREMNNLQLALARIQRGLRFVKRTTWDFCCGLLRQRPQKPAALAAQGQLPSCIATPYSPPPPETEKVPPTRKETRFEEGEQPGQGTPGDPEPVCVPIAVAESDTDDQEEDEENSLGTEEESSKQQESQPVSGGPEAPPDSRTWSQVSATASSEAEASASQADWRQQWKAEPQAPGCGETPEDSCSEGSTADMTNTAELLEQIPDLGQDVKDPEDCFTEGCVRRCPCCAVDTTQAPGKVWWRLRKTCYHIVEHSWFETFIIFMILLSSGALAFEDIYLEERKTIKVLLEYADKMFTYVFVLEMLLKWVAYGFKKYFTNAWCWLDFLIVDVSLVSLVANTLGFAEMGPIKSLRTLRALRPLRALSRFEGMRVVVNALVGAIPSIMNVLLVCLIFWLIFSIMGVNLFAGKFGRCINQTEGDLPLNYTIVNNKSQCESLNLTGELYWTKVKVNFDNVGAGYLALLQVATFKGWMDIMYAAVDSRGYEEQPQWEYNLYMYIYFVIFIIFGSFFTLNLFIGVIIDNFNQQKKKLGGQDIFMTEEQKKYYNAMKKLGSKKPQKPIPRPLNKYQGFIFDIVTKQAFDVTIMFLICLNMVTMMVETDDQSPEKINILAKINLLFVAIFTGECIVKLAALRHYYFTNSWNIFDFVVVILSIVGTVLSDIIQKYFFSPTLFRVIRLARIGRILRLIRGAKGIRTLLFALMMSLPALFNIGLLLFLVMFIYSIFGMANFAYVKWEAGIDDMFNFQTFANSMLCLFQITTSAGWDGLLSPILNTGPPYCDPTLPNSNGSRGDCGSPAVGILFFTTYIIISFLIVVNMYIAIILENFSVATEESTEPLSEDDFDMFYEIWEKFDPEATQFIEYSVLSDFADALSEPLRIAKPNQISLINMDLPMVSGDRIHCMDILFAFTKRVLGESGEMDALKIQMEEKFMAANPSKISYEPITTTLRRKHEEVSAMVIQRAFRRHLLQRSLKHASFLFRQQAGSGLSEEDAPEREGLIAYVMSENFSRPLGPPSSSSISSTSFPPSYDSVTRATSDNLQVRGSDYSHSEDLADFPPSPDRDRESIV
T3 sequence (Q15858 1-1977 isoform Q15858-3): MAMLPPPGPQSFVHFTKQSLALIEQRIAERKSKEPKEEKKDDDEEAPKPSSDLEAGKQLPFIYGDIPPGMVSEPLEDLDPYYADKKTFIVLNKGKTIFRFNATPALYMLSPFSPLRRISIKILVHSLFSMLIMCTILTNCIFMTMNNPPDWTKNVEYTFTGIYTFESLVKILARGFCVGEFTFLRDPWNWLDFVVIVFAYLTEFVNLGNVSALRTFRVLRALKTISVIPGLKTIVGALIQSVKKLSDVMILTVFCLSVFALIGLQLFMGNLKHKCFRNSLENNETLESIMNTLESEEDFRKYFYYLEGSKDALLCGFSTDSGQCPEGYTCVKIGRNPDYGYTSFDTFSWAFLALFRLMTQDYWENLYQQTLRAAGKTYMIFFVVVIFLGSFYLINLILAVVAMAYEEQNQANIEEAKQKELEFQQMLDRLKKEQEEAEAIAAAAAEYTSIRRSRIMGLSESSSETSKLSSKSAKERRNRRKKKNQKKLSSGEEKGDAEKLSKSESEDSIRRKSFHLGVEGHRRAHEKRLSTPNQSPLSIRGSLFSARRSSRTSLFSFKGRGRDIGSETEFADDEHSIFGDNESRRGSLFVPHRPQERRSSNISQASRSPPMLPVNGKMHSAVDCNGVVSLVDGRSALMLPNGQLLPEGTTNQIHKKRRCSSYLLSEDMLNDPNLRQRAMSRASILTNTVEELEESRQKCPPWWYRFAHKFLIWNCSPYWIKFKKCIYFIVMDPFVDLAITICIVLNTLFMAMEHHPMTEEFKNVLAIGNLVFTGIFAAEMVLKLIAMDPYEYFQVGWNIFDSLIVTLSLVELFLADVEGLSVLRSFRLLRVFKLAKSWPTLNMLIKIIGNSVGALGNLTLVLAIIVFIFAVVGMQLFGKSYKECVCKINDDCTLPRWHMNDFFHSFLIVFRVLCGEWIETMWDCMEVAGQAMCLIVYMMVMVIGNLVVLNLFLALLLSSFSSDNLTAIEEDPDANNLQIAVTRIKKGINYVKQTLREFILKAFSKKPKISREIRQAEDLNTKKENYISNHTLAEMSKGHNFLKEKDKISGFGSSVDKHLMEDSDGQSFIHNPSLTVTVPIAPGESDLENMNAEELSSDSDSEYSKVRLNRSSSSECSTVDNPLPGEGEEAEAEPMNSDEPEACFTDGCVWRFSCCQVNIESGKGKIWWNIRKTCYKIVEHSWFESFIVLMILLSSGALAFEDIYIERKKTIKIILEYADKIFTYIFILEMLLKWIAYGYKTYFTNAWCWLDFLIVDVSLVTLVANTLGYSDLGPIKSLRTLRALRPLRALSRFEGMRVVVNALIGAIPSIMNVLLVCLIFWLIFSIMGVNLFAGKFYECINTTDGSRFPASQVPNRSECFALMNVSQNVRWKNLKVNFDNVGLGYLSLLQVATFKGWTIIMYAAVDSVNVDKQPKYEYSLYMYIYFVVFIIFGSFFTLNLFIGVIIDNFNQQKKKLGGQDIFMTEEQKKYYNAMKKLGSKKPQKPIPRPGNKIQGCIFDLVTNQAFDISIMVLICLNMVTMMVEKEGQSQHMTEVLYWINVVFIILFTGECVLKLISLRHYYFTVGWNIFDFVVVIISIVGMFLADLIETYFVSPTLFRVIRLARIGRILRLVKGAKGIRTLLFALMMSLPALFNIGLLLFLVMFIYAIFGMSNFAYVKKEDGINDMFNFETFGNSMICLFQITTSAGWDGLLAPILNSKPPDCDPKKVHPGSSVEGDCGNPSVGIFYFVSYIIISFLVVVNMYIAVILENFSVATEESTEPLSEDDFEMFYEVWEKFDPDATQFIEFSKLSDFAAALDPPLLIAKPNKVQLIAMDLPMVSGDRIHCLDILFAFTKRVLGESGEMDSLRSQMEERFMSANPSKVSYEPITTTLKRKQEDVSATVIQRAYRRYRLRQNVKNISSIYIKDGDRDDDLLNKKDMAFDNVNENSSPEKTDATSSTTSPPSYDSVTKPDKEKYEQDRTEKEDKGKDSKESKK
T3 sequence (Q07699 19-218 partner): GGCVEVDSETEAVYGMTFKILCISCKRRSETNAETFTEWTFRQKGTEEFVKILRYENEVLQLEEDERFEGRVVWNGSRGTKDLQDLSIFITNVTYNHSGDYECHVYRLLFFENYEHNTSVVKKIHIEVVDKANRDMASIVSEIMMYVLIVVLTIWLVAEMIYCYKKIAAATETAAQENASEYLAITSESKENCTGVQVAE
T2 sequence (Q15858 1-1977 isoform Q15858-3): as the sequence (Q15858 1-1977 isoform Q15858-3) above
T2 sequence (Q07699 19-218 partner): as the sequence (Q07699 19-218 partner) above

As for `O=C(O)[C@@H]1C[C@@H](F)CN1C(=O)c1cc(C2CC2)c(OCC2CCN(Cc3noc(-c4ccccc4Cl)n3)CC2)cc1F` [Example 220, (2S, 4R)-1-(4-((1-((5-(2-chlorophenyl)-1,2,4-oxadiazol-3-yl)methyl)piperidin-4-yl)methoxy)-5-cyclopropyl-2-fluorobenzoyl)-4-fluoropyrrolidine-2-carboxylic acid], the results for the IC50 against NaV1.5 (setting [1]), against human NaV1.7 and at hNav1.7 were at least 30000 nM, 830 nM and 160 nM, respectively.
In the case of `O=C(O)[C@@H]1CC2(CC2)CN1C(=O)c1cc(C2CC2)c(OCC2(F)CCN(Cc3cc(C(F)(F)F)ccc3Cl)CC2)cc1F` [Example 221, (S)-5-(4-((1-(2-chloro-5-(trifluoromethyl)benzyl)-4-fluoropiperidin-4-yl)methoxy)-5-cyclopropyl-2-fluorobenzoyl)-5-azaspiro[2.4]heptane-6-carboxylic acid], the values for the IC50 on NaV1.5, against human NaV1.7 and at hNav1.7 were 16000 nM, 1100 nM and 500 nM, respectively.
As to `O=C(O)[C@@H]1C[C@@H](F)CN1C(=O)c1cc(C2CC2)c(OCC2CCN(Cc3c(Cl)cccc3Cl)CC2)cc1F` [Example 222, (2S,4R)-1-(5-cyclopropyl-4-((1-(2,6-dichlorobenzyl)piperidin-4-yl)methoxy)-2-fluorobenzoyl)-4-fluoropyrrolidine-2-carboxylic acid], the IC50 against NaV1.5 (setting [1]) is at least 30000 nM; against human NaV1.7, 210 nM; at hNav1.7 it was 13 nM.
In the case of `O=C(NC(C(=O)O)C(F)(F)F)c1cc(C2CC2)c(OCC23CC4CC(CC(C4)C2)C3)cc1F` (stereo not drawn) [Example 223, 2-(4-(adamantan-1-ylmethoxy)-5-cyclopropyl-2-fluorobenzamido)-3,3,3-trifluoropropanoic acid], the IC50 turned out to be 3900 nM at NaV1.5 (setting [2]), 2900 nM at human NaV1.7 and 910 nM on hNav1.7.
In the same order, the values of `C[C@H]1OCN(C(=O)c2cc(C3CC3)c(OCC3CCN(Cc4c(Cl)cccc4Cl)CC3)cc2F)[C@@H]1C(=O)O` [Example 224, (4S,5R)-3-(5-cyclopropyl-4-((1-(2,6-dichlorobenzyl)piperidin-4-yl)methoxy)-2-fluorobenzoyl)-5-methyloxazolidine-4-carboxylic acid] are 22000 nM, 100 nM and 14 nM.
In the same order, the values of `C[C@H]1OCN(C(=O)c2cc(C3CC3)c(OCC3CCN(C(c4cc(Cl)cc(Cl)c4)C(F)(F)F)CC3)cc2F)[C@@H]1C(=O)O` (stereo partly drawn) [Example 226, (4S,5R)-3-(5-cyclopropyl-4-((1-(1-(3,5-dichlorophenyl)-2,2,2-trifluoroethyl)-piperidin-4-yl)methoxy)-2-fluorobenzoyl)-5-methyloxazolidine-4-carboxylic acid] are 6100 nM, 130 nM and 12 nM.
In the same order, the values of `C[C@H]1OCN(C(=O)c2cc(C3CC3)c(OCC3CCN(Cc4cc(C(F)(F)F)cc(Cl)c4F)CC3)cc2F)[C@@H]1C(=O)O` [Example 227, (4S,5R)-3-(4-((1-(3-chloro-2-fluoro-5-(trifluoromethyl)benzyl)piperidin-4-yl)methoxy)-5-cyclopropyl-2-fluorobenzoyl)-5-methyloxazolidine-4-carboxylic acid] are 16000 nM, 65 nM and 29 nM.
As to `C[C@H]1OCN(C(=O)c2cc(C3CC3)c(OCC3CCN(Cc4cc(C(F)(F)F)ccc4Cl)CC3)cc2F)[C@@H]1C(=O)O` [Example 228, (4S,5R)-3-(4-((1-(2-chloro-5-(trifluoromethyl)benzyl)piperidin-4-yl)methoxy)-5-cyclopropyl-2-fluorobenzoyl)-5-methyloxazolidine-4-carboxylic acid], the IC50 amounted to 25000 nM at NaV1.5 (setting [2]), 87 nM against human NaV1.7 and 17 nM on hNav1.7.
Regarding `C[C@H]1OCN(C(=O)c2cc(C3CC3)c(OCC3(C)CN([C@H](c4ccccc4)c4cc(Cl)cc(Cl)c4)C3)cc2F)[C@@H]1C(=O)O` [Example 229, (4S,5R)-3-(5-cyclopropyl-4-((1-((R)-(3,5-dichlorophenyl)(phenyl)methyl)-3-methylazetidin-3-yl)methoxy)-2-fluorobenzoyl)-5-methyloxazolidine-4-carboxylic acid], the IC50 at NaV1.5 (setting [1]) was at least 30000 nM; at human NaV1.7 it was 270 nM; at hNav1.7, 6.9 nM.
For the molecule `C[C@H]1[C@H](O)CN(C(=O)c2cc(C3CC3)c(OCC34CC5CC(CC(C5)C3)C4)cc2F)[C@@H]1C(=O)O` [Example 230, (2S, 3R, 4S)-1-(4-(adamantan-1-ylmethoxy)-5-cyclopropyl-2-fluorobenzoyl)-4-hydroxy-3-methylpyrrolidine-2-carboxylic acid], the results for the IC50 on NaV1.5 (setting [2]), against human NaV1.7 and at hNav1.7 were 11000 nM, 32 nM and 21 nM, respectively.
In the case of `C[C@@H]1[C@H](O)CN(C(=O)c2cc(C3CC3)c(OCC34CC5CC(CC(C5)C3)C4)cc2F)[C@@H]1C(=O)O` [Example 231, (2S,3S,4S)-1-(4-(adamantan-1-ylmethoxy)-5-cyclopropyl-2-fluorobenzoyl)-4-hydroxy-3-methylpyrrolidine-2-carboxylic acid], the IC50 at NaV1.5 (setting [2]) came to 15000 nM; against human NaV1.7, 360 nM; at hNav1.7, 290 nM.
